Reference: US20080145858A1, “DETECTION AND IDENTIFICATION OF TOXICANTS BY MEASUREMENT OF GENE […]” (priority 2003, published 2008)
Marks after values point to notes of the source that are not given here.

Test system: Xenopus laevis neurulation stage embryos (stage 15)
Assay: Xenopus cDNA microarray, differential gene expression after PMA treatment during neurulation (Group II)
Format: in vivo
Conditions: PMA, stage 15
Description: Specifically, the method and screen of the present invention function as follows. EST clones produced from Xenopus laevis unfertilized eggs were used in the present study with ˜1,200 EST clones from a 18,500 EST clone set selected for production of a Xenopus cDNA microarray. The Xenopus microarray was used to measure the effect of chemical treatment on Xenopus embryo gene regulation. The chemical treatment was a phorbol ester, PMA. Xenopus eggs were obtained from females induced for ovulation and fertilized in vitro. Control Xenopus laevis embryos were allowed to develop to stage 8 blastula or stage 15 neurula. Treated embryos were exposed to PMA during cleavage stage or during neurulation with end points of blastula (stage 8) or neurula (stage 15). Specifically, PMA 100 ng/ml was added to the incubation media during cleavage stages for evaluation in stage 8 embryo or PMA was added during neural induction for evaluation in stage 15 embryos. RNA extracted from the embryos was used to generate fluorescent cDNA probes for Xenopus microarray analyses to measure differential gene expression with and without the phorbol ester treatment. Analysis was performed using paired RNA samples to compare PMA-treated and untreated embryos: Group I measured the effects of PMA-treatment during the cleavage stage in stage 8 embryos and Group II measured the effects of PMA-treatment during neurulation in stage 15 embryos. Group III measured the change in gene expression between stage 8 and stage 15 embryos.
cDNA fragments were obtained by PCR replication of Xenopus laevis unfertilized egg cDNA inserts, purified, quantitated and loaded onto glass chips by robotics. In addition to the selected ˜1,200 genes, 64 lambda Q gene, an internal control cDNA (Genomic Solutions, Inc., Ann Arbor, Mich.) was loaded on the chip. The insert DNA from ˜1,200 clones were PCR amplified using forward and reverse primers (GF.200 primers, Research Genetics, Huntsville, Ala.). A second PCR was carried out using 1 μl of the primary PCR (20 μl) for template. Excess dNTPs, polymerase and other PCR artifacts were removed from the secondary PCR reactions using Millipore Multiscreen plates (Millipore Corporation, Bedford, Mass.) using the standard protocol. The purity of the PCR products was assessed by electrophoresis and documented using an Alphalmager 1000 Digital Imaging System (Alpha Innotech Corporation, San Leandro, Calif.). The DNA obtained by PCR was quantitated using PicoGreen (Molecular Probes, Eugene, Oreg.). The DNA was denatured and arrayed onto amino-silane coated microscope slides (CMT-GAPS coated slides, Corning, Corning, N.Y.) using a Flexys robotic workstation (Genomic Solutions Inc.). The ˜1,200 PCR products were arrayed in duplicate on each slide and cross-linked. Each gene chip contained duplicate cDNA samples.
Total RNA was prepared from embryos treated in three separate dishes per treatment group that were pooled. Total RNA was isolated from the frog embryos (1,200 embryos for each probe production) using TRIzol extraction (Gibco BRL, Grand Island, N.Y.) and Qiagen RNeasy kits (Qiagen, Valencia, Calif.). The ethanol precipitated RNA was resuspended in RNase-free water, quantitated with RiboGreen (Molecular Probes, Eugene, Oreg.). Total RNA was further purified using oligoTex mRNA maxi kit (Qiagen Co.) with the bound mRNA eluted with minimum volume of elution buffer and precipitated with ethanol. The recovery rate of mRNA by the ethanol precipitation method was ˜70%. Cy3- or Cy5-tagged probes were produced from an mRNA mixture (20 μl) of Xenopus mRNA (5 μg) and lambda Q gene mRNA (3.5 ng) reverse-transcribed with oligo(dT)18-22 primer and dNTPs and the reverse-transcribed cDNA was cross-linked with Cy3 or Cy5 as described in Clontech Atlas™ Glass Fluorescent Labeling kit manual (www.clontech.com). After hydrolysis of the RNA and purification of the probe (Centricon 50, Millipore, Bedford, Mass.), the cDNA in TE buffer was quantitated by absorbance at 260 nm. […]

CCCCCCCCCCCCCC(=O)O[C@@H]1[C@@H](C)[C@@]2(O)[C@@H](C=C(CO)C[C@]3(O)C(=O)C(C)=C[C@@H]23)[C@@H]2C(C)(C)[C@]12OC(C)=O [PMA, phorbol 12-myristate 12-acetate]
Cy3/Cy5 by Landmarks (0.25) (PBX0135G07 mRNA): 3.95
Cy3/Cy5 by all Data Points (0.469) (PBX0135G07 mRNA): 2.11
Normalized by Landmarks (0.25) (PBX0135G07 mRNA): 0.253
Normalized by all Data Points (0.469) (PBX0135G07 mRNA): 0.474
Ratio of Medians (Cy5/Cy3) First Spot (PBX0135G07 mRNA): 0.98
Ratio of Medians (Cy5/Cy3) Mean (PBX0135G07 mRNA): 1.01 ± 0.03 ^a
Ratio of Medians (Cy5/Cy3) Second Spot (PBX0135G07 mRNA): 1.04
Cy3/Cy5 by Landmarks (0.25) (PBX0135H08 mRNA): 4.93
Cy3/Cy5 by all Data Points (0.469) (PBX0135H08 mRNA): 2.63
Normalized by Landmarks (0.25) (PBX0135H08 mRNA): 0.203
Normalized by all Data Points (0.469) (PBX0135H08 mRNA): 0.380
Ratio of Medians (Cy5/Cy3) First Spot (PBX0135H08 mRNA): 0.78
Ratio of Medians (Cy5/Cy3) Mean (PBX0135H08 mRNA): 0.81 ± 0.03 ^a
Ratio of Medians (Cy5/Cy3) Second Spot (PBX0135H08 mRNA): 0.84
Normalized by Landmarks (0.25) (PBX 0136C09 mRNA): 1.53
Normalized by all Data Points (0.469) (PBX 0136C09 mRNA): 2.87
Ratio of Medians (Cy5/Cy3) First Spot (PBX 0136C09 mRNA): 4.19
Ratio of Medians (Cy5/Cy3) Mean (PBX 0136C09 mRNA): 6.12 ± 1.93 ^a
Ratio of Medians (Cy5/Cy3) Second Spot (PBX 0136C09 mRNA): 8.05
Normalized by Landmarks (0.25) (PBX 0136C12 mRNA): 1.51
Normalized by all Data Points (0.469) (PBX 0136C12 mRNA): 2.82
Ratio of Medians (Cy5/Cy3) First Spot (PBX 0136C12 mRNA): 5.29
Ratio of Medians (Cy5/Cy3) Mean (PBX 0136C12 mRNA): 6.02 ± 0.73 ^a
Ratio of Medians (Cy5/Cy3) Second Spot (PBX 0136C12 mRNA): 6.75
Normalized by Landmarks (0.25) (PBX 0136F03 mRNA): 1.54
Normalized by all Data Points (0.469) (PBX 0136F03 mRNA): 2.90
Ratio of Medians (Cy5/Cy3) First Spot (PBX 0136F03 mRNA): 3.67
Ratio of Medians (Cy5/Cy3) Mean (PBX 0136F03 mRNA): 6.18 ± 2.5 ^a
Ratio of Medians (Cy5/Cy3) Second Spot (PBX 0136F03 mRNA): 8.68
Normalized by Landmarks (0.25) (PBX 0136G06 mRNA): 1.36
Normalized by all Data Points (0.469) (PBX 0136G06 mRNA): 2.54
Ratio of Medians (Cy5/Cy3) First Spot (PBX 0136G06 mRNA): 4.95
Ratio of Medians (Cy5/Cy3) Mean (PBX 0136G06 mRNA): 5.42 ± 0.47 ^a
Ratio of Medians (Cy5/Cy3) Second Spot (PBX 0136G06 mRNA): 5.89
Normalized by Landmarks (0.25) (PBX 0136G08 mRNA): 1.36
Normalized by all Data Points (0.469) (PBX 0136G08 mRNA): 2.54
Ratio of Medians (Cy5/Cy3) First Spot (PBX 0136G08 mRNA): 4.48
Ratio of Medians (Cy5/Cy3) Mean (PBX 0136G08 mRNA): 5.43 ± 0.94 ^a
Ratio of Medians (Cy5/Cy3) Second Spot (PBX 0136G08 mRNA): 6.37
Cy3/Cy5 by Landmarks (0.25) (PBX0137F04 mRNA): 3.70
Cy3/Cy5 by all Data Points (0.469) (PBX0137F04 mRNA): 1.97
Normalized by Landmarks (0.25) (PBX0137F04 mRNA): 0.270
Normalized by all Data Points (0.469) (PBX0137F04 mRNA): 0.507
Ratio of Medians (Cy5/Cy3) First Spot (PBX0137F04 mRNA): 0.95
Ratio of Medians (Cy5/Cy3) Mean (PBX0137F04 mRNA): 1.08 ± 0.13 ^a
Ratio of Medians (Cy5/Cy3) Second Spot (PBX0137F04 mRNA): 1.21
Normalized by Landmarks (0.25) (PBX 0138E11 mRNA): 1.57
Normalized by all Data Points (0.469) (PBX 0138E11 mRNA): 2.95
Ratio of Medians (Cy5/Cy3) First Spot (PBX 0138E11 mRNA): 5.02
Ratio of Medians (Cy5/Cy3) Mean (PBX 0138E11 mRNA): 6.29 ± 1.27 ^a
Ratio of Medians (Cy5/Cy3) Second Spot (PBX 0138E11 mRNA): 7.56
Normalized by Landmarks (0.25) (PBX 0138H03 mRNA): 1.44
Normalized by all Data Points (0.469) (PBX 0138H03 mRNA): 2.70
Ratio of Medians (Cy5/Cy3) First Spot (PBX 0138H03 mRNA): 6.36
Ratio of Medians (Cy5/Cy3) Mean (PBX 0138H03 mRNA): 5.75 ± 0.61 ^a
Ratio of Medians (Cy5/Cy3) Second Spot (PBX 0138H03 mRNA): 5.14
Cy3/Cy5 by Landmarks (0.25) (PBX0139G06 mRNA): 3.77
Cy3/Cy5 by all Data Points (0.469) (PBX0139G06 mRNA): 2.01
Normalized by Landmarks (0.25) (PBX0139G06 mRNA): 0.265
Normalized by all Data Points (0.469) (PBX0139G06 mRNA): 0.497
Ratio of Medians (Cy5/Cy3) First Spot (PBX0139G06 mRNA): 1.06
